Results taken from US8846757B2, “Bioactive depside and anthocyanin compounds, compositions, and methods of use” (The Trustees of Columbia University in the City of New York, priority 2006, dated 2014).
Where two headings read alike, the source gives them in different places.

Key:
[1] = DPPH assay (antiradical activity); conditions: 400 μM DPPH
Experimental: The DPPH assay was performed on extracts, fractions, and purified compounds as previously described, using 400 μM DPPH (9).
The DPPH assay is an indication of the ability of a substance to scavenge free radicals. Gallic acid is know to be an effective free radical scavenger.

[2] = system: IL-8 production in human small airway epithelial (SAE) cells; assay: IL-8 immunoassay (ELISA) in SAE cells; type: cell-based; conditions: compound 100 μM, 24 hours; for inhibition at 100 µM: Homo sapiens
Experimental: Human SAE cells were cultured according to supplier instructions (Clonetics, CA) and maintained in a controlled atmosphere of air-5% CO2 at 37° C. Confluent SAE cells at passages 4-8 were used for experiments.
Cigarette smoke extract (CSE) was prepared using a modified protocol (24). Briefly, a Barnet vacuum pump operating at constant flow was used to draw the smoke of one unfiltered 2R1 reference cigarette (University of Kentucky) through 25 mL of Dulbecco's phosphate-buffered saline. This solution (100% CSE) was adjusted to pH 7.4, filtered, diluted with small airway growth medium to a final concentration of 5%, and added to the cells immediately.
Cells were treated with 5% CSE or pure compounds (100 μM), or pretreated with pure compounds 30 minutes prior to 5% CSE exposure. After 24 hours measurement of human IL-8 in cell culture supemates was performed by ELISA (R&D Systems Inc., MN). Statistical analyses were performed by Student's t-test (two-sided) using the JMP Statistics software package (SAS Institute Inc., NC) and defined at the 5% level.

HT29 colon cancer cells [3] = assay: Cytotoxicity assay, HT29; conditions: read-out: Cytotoxicity IC50 HT29
Experimental: (§1) Colon cancer cell lines HT29, HCT116, and SW480 (10,000 cells) were plated into 24-well plates in Dulbecco's modified Eagle medium (DMEM) containing 10% fetal bovine serum (FBS). […] The plates were washed with PBS once and the attached cells were collected by tripsinization.

[4] = system: HCT116 colon cancer cells; assay: Cytotoxicity assay, HCT116; conditions: read-out: Cytotoxicity IC50 HCT116
Experimental: as §1

HT29 colon cancer cells [5] = system: HT29 colon cancer cells
Experimental: as §1

[6] = system: HCT116 colon cancer cells
Experimental: as §1

SW480 colon cancer cells = assay: Cytotoxicity assay, SW480; type: cell-based; conditions: 72 hours, cell count
Experimental: as §1

HT29 colon cancer cells [7] = conditions: positive controls, refs (8, 19); cited from earlier work
[8] = pretreated 30 minutes prior to 5% CSE

Question: Which results are given for `COC(=O)Cc1c(O)cc(O)cc1OC(=O)c1ccc(O)c(O)c1` [Compound 1, methyl 2-[(3,4-dihydroxybenzoyloxy)-4,6-dihydroxyphenyl]acetate]?
Answer: IC50 [1]: 51.4 µM; inhibition at 100 µM ([2]; no CSE, read-out: IL-8 inhibition in SAE cells, Untreated): 81.3%; inhibition at 100 µM ([2]; pretreated 30 minutes prior to 5% CSE, read-out: IL-8 inhibition in SAE cells, Treated with 5% CSE): 47.3%; IC50 (HT29 colon cancer cells [3]; Homo sapiens, HT-29, 72 h): 65 µM; IC50 ([4]; Homo sapiens, HCT-116, 72 h): > 100 µM

Question: For `O=C(O)Cc1c(O)cc(O)cc1OC(=O)c1ccc(O)c(O)c1` [Compound 2, 2-O-(3,4-dihydroxybenzoyl)-2,4,6-trihydroxyphenylacetic acid], which IC50 [1] is on record?
Answer: 61.8 µM

Question: And the “IL-8 inhibition in SAE cells, Untreated” value ([2]; no CSE)?
Answer: 74.9%

Question: And the “IL-8 inhibition in SAE cells, Treated with 5% CSE” value [2, 8]?
Answer: 70.3%

Question: And the IC50 (HT29 colon cancer cells [5])?
Answer: > 100 µM

Question: What about the IC50 [6] of the same molecule?
Answer: 30 µM

Question: Which results are given for `OC[C@H]1O[C@@H](Oc2cc3c(O)cc(O)cc3[o+]c2-c2ccc(O)c(O)c2)[C@H](O)[C@@H](O)[C@@H]1O` [Compound 3, cyanidin 3-glucoside]?
Answer: IC50 [1]: 28.4 µM; IL-8 inhibition in SAE cells, Untreated ([2]; no CSE): 65.3%; IL-8 inhibition in SAE cells, Treated with 5% CSE [2, 8]: 36.4%; IC50 (SW480 colon cancer cells): 90 to 100 µM; IC50 (HT29 colon cancer cells [3]; 72 hours, cell count): ~100 µM; IC50 ([4]; 72 hours, cell count): ~70 µM

Question: For `OC[C@H]1O[C@@H](Oc2cc3c(O)cc(O)cc3[o+]c2-c2cc(O)c(O)c(O)c2)[C@H](O)[C@@H](O)[C@@H]1O` [Compound 4, delphinidin 3-glucoside], which IC50 [1] is on record?
Answer: 26.3 µM

Question: And the “IL-8 inhibition in SAE cells, Untreated” value ([2]; no CSE, 100 µM)?
Answer: Not Detected

Question: And the “IL-8 inhibition in SAE cells, Treated with 5% CSE” value [2, 8]?
Answer: 96.0%

Question: What about the IC50 (SW480 colon cancer cells) of the same molecule?
Answer: 20 µM

Question: What about the IC50 (HT29 colon cancer cells [3]; 72 hours, cell count) of the same molecule?
Answer: ~100 µM

Question: What about the IC50 ([4]; 72 hours, cell count) of the same molecule?
Answer: 12 µM

Question: Which IC50 (SW480 colon cancer cells; Homo sapiens, SW480) does the source give for `O=c1[nH]cc(F)c(=O)[nH]1` [Compound 5-FU, 5-fluorouracil, reference compound] here?
Answer: 53 µM

Question: And the IC50 (HT29 colon cancer cells [3]; Homo sapiens, HT-29, 72 h)?
Answer: 46.1 µM

Question: What about the IC50 ([4]; Homo sapiens, HCT-116, 72 h) of the same molecule?
Answer: 45.1 µM

Question: For `O=C(O[C@@H]1Cc2c(O)cc(O)cc2O[C@@H]1c1cc(O)c(O)c(O)c1)c1cc(O)c(O)c(O)c1` [EGCG, epigallocatechin gallate], which “HT29 IC50” value (HT29 colon cancer cells [7]) is on record?
Answer: 27 µg/mL

Question: Which IC50 [1] does the source give for `O=C(O)c1cc(O)c(O)c(O)c1` [Gallic acid, gallic acid, reference compound] here?
Answer: 30 ± 2.9 µM

Question: What does the source list for catechin [reference compound]?
Answer: IL-8 inhibition in SAE cells, Untreated ([2]; no CSE): No Change; IL-8 inhibition in SAE cells, Treated with 5% CSE [2, 8]: 60.3%
